# Assay results reported in patent US20110154529A1, “INDUCED CHROMOSOME DOUBLING IN PLANTS” (DOW AGROSCIENCES LLC, priority 2009, published 2011).
# Where two headings read alike, the source gives them in different places.
# Legend:
# rat = conditions: cited from earlier work
# haploid maize seedlings = test: Chromosome doubling by seedling soaking, plants transplanted into the field; type: in vivo
# Procedure: The procedure listed in example 1 was utilized to treat maize seedlings that were subsequently transplanted into the field. Seedlings that survived the transplanting were grown to maturity. Plants that produced tassels and silk were self-pollinated. […] For the cycloalkene treatment, 25 μM and 100 μM concentrations of compound 1 was used.
# [1] = tested on: haploid germinated maize seedlings
# Text: An exemplary cycloalkene, 1,2,3-Trimethoxy-4-((1S,6R)-6-nitro-cyclohex-3-enyl)-benzene, designated as compound 1 was used to determine double haploid efficiency, doubling rate by a coleoptile tip cutting, seedling soaking method. […] Data provided in Tables 1, 2 and 3 were generated using haploid seeds obtained through cross pollination of a maize line of interest with an inducer maize line.
# The resulting maize seeds were sorted based on marker gene color.
# Coleoptile tips in maize seedlings were cut and the seedlings were soaked in various chromosome doubling agents as shown in Table 1. Haploid maize seeds were germinated and the coleoptile tips were excised (1-2 mm). Seedlings that survived were transplanted and grown until tassels and silk formed. Plants that produced tassels and silk were self-pollinated. Seeds produced form the self-pollination were visually assessed for the marker to identify them as double haploid (dihaploid).
# [2] = tested on: germinated haploid maize seedlings in soil; test: Chromosome doubling by foliar spray treatment at V1-V3 stage; type: in vivo
# Procedure: Haploid maize seeds were planted in Sun Gro MetroMix® 306 planting mixture, which typically has a pH of 6.0 to 6.8 and an organic matter content of about 30 percent, in 72-well, plastic propagation flats (Dillen Products; Middlefield Ohio). When required to ensure good germination and healthy plants, a fungicide treatment and/or other chemical or physical treatment was applied. The plants were grown in a greenhouse with an approximate 15 hour photoperiod which was maintained at about 23-29° C. during the day and 22-28° C. during the night until they reached the V1-V3 growth stage. Nutrients and water were added on a regular basis and supplemental lighting was provided with overhead metal halide 1000-Watt lamps as necessary.
# A weighed amount of compound 1, determined by the rate to be tested, was dissolved in 1.2 mL of dimethyl sulfoxide (DMSO) to obtain concentrated stock solutions. […] The concentrated stock solutions obtained were diluted with 10.8 mL of an aqueous mixture containing 1.25% v/v (volume/volume) Agri-dex Crop Oil Concentrate. Compound requirements are based upon a 12 mL application volume at a rate of 187 L/ha. Formulated compounds were applied to the plant material with an overhead Mandel track sprayer equipped with a 8002E nozzle calibrated to deliver 187 L/ha over an application area of 0.503 square meters at a spray height of 18 inches (43 cm) above the average plant canopy height. Control plants were sprayed in the same manner with the solvent blank.
# The treated plants and control plants were placed in a greenhouse as described above and watered by sub-irrigation to prevent wash-off of the test compounds. Approximately 14 days after treatment, the treated plants were transplanted to individual pots containing Sun Gro MetroMix® 306. Plants that produced tassels and silk were then self-pollinated to obtain dihaploid seed.
# Table 3 illustrates the results of doubling rate after spray treatment with the chemicals of interest. […] The spray treated plant tassels and silks were synchronized well and the plants shed more pollen.
# rats = test: Dermal toxicity on rats; type: in vivo, rat; conditions: rats at 200 mg/kg
# [3] = Acute mammalian toxicity LD50 (rat); conditions: in vivo
# rabbit = test: Eye irritation; type: in vivo; conditions: dose of about 100 mg/animal
# [4] = seedling soak, rate cell empty in table, colchicine at 0.06% w/v
# [5] = seedling soak, rate 5 μM, TP = transplanted
# [6] = seedling soak, rate 25 μM, TP = transplanted
# [7] = seedling soak, rate 125 μM, TP = transplanted
smiles,measurement,setting,value
"COc1cc2c(c(OC)c1OC)-c1ccc(OC)c(=O)cc1[C@@H](NC(C)=O)CC2 [Colchicine, colchicine]",oral LD50 (rat),rat,5.89 mg/kg
same,% haploid maize plants pollinated (doubling rate),haploid maize seedlings; 0.06% colchicine,55.68%
same,plants that had doubled haploid ears,"haploid maize seedlings; 0.06% w/v colchicine, of about 49 haploid plants pollinated",about 38
same,mortality rate,"[1]; seedling soak, colchicine treatment at 0.06% w/v",41.5%
same,% DR (doubling rate: No. plants with pollen and silk/No. of plants left * 100),[1]; [4],53.3%
same,No. plants alive,[1]; [4],38
same,No. plants dead,[1]; [4],27
same,No. plants dead after TP,[1]; [4],0
same,No. plants with pollen & silks,[1]; [4],16
"COc1ccc([C@@H]2CC=CC[C@H]2[N+](=O)[O-])c(OC)c1OC [Compound 1, 1,2,3-Trimethoxy-4-((1S,6R)-6-nitro-cyclohex-3-enyl)-benzene]",% DH pollination success,haploid maize seedlings; 25 μM,90%
same,% haploid maize plants pollinated (doubling rate),haploid maize seedlings; 25 μM,67.79%
same,plants that had doubled haploid ears,"haploid maize seedlings; 25 μM, out of 40 pollinated maize haploid plants",36
same,% DH pollination success,haploid maize seedlings; 100 μM,62.5%
same,% haploid maize plants pollinated (doubling rate),haploid maize seedlings; 100 μM,51.06%
same,plants that had doubled haploid ears,"haploid maize seedlings; 100 μM, out of 24 pollinated haploid maize plants",15
same,# plants dead after treatment,"[2]; maize, in vivo",0
same,# plants w/ pollen and silk,"[2]; spray, rate 70 g ai/ha",6
same,% DR (doubling rate),"[2]; spray, rate 70 g ai/ha",31.2%
same,# plants w/ pollen and silk,"[2]; spray, rate 280 g ai/ha",12
same,% DR (doubling rate),"[2]; spray, rate 280 g ai/ha",46.2%
same,No. plants alive,"[1]; maize, in vivo, 5 μM",56
same,No. plants dead,"[1]; maize, in vivo, 5 μM",10
same,No. plants dead after TP,"[1]; maize, in vivo, 5 μM",2
same,No. plants alive,"[1]; maize, in vivo, 25 μM",46
same,No. plants dead,"[1]; maize, in vivo, 25 μM",20
same,No. plants dead after TP,"[1]; maize, in vivo, 25 μM",2
same,No. plants alive,"[1]; maize, in vivo, 125 μM",29
same,No. plants dead,"[1]; maize, in vivo, 125 μM",34
same,No. plants dead after TP,"[1]; maize, in vivo, 125 μM",2
same,mortality rate,"[1]; seedling soak, 5 μM (10/66*100)",15.1%
same,mortality rate,"[1]; seedling soak, 25 μM",30.3%
same,% DR (doubling rate: No. plants with pollen and silk/No. of plants left * 100),"[1]; seedling soak, rate 5 μM",53.3%
same,No. plants with pollen & silks,"[1]; seedling soak, rate 5 μM",24
same,% DR (doubling rate: No. plants with pollen and silk/No. of plants left * 100),"[1]; seedling soak, rate 5 μM, listed as compound 1",about 53%
same,% DR (doubling rate: No. plants with pollen and silk/No. of plants left * 100),"[1]; seedling soak, rate 25 μM",62.5%
same,No. plants with pollen & silks,"[1]; seedling soak, rate 25 μM",20
same,% DR (doubling rate: No. plants with pollen and silk/No. of plants left * 100),"[1]; seedling soak, rate 125 μM",76.5%
same,No. plants with pollen & silks,"[1]; seedling soak, rate 125 μM",13
same,dermal toxicity,rats,No dermal toxicity was observed
same,LD50,[3],≥ 500 mg/kg
same,Eye irritation: time to resolution of corneal and iridal effects,rabbit,≤ 48 h
same,Eye irritation: animals with corneal and iridal effects,rabbit; at 24 hours,1 of 3 animals showed corneal and iridal effects
"CC(C)OC(=O)Nc1cccc(Cl)c1 [Chlorpropham, chlorpropham]",# plants dead after treatment,"[2]; spray, rate 70 g ai/ha",0
same,# plants w/ pollen and silk,"[2]; spray, rate 70 g ai/ha",9
same,% DR (doubling rate),"[2]; spray, rate 70 g ai/ha",40.9%
same,# plants dead after treatment,"[2]; spray, rate 280 g ai/ha",1
same,# plants w/ pollen and silk,"[2]; spray, rate 280 g ai/ha",18
same,% DR (doubling rate),"[2]; spray, rate 280 g ai/ha",58.1%
same,% DR (doubling rate: No. plants with pollen and silk/No. of plants left * 100),"[1]; seedling soak, rate 5 μM",45.5%
same,No. plants alive,"[1]; seedling soak, rate 5 μM",16
same,No. plants dead,"[1]; seedling soak, rate 5 μM",48
same,No. plants with pollen & silks,"[1]; seedling soak, rate 5 μM",5
same,No. plants dead after TP,[1]; [5],0
same,No. plants alive,"[1]; seedling soak, rate 25 μM",1
same,No. plants dead,"[1]; seedling soak, rate 25 μM",63
same,No. plants dead after TP,[1]; [6],0
same,No. plants alive,"[1]; seedling soak, rate 125 μM",0
same,No. plants dead,"[1]; seedling soak, rate 125 μM",64
same,No. plants dead after TP,[1]; [7],0
"C#CC(C)(C)NC(=O)c1cc(Cl)cc(Cl)c1 [Pronamide, pronamide]",# plants dead after treatment,"[2]; spray, rate 35 g ai/ha",0
same,# plants w/ pollen and silk,"[2]; spray, rate 35 g ai/ha",5
same,% DR (doubling rate),"[2]; spray, rate 35 g ai/ha",27.8%
same,# plants dead after treatment,"[2]; spray, rate 140 g ai/ha",0
same,# plants w/ pollen and silk,"[2]; spray, rate 140 g ai/ha",3
same,% DR (doubling rate),"[2]; spray, rate 140 g ai/ha",16.7%
same,% DR (doubling rate: No. plants with pollen and silk/No. of plants left * 100),"[1]; seedling soak, rate 5 μM",44.5%
same,No. plants alive,"[1]; seedling soak, rate 5 μM",41
same,No. plants dead,"[1]; seedling soak, rate 5 μM",23
same,No. plants with pollen & silks,"[1]; seedling soak, rate 5 μM",12
same,No. plants dead after TP,[1]; [5],3
same,No. plants alive,"[1]; seedling soak, rate 25 μM",13
same,No. plants dead,"[1]; seedling soak, rate 25 μM",51
same,No. plants with pollen & silks,"[1]; seedling soak, rate 25 μM",2
same,No. plants dead after TP,[1]; [6],1
same,No. plants alive,"[1]; seedling soak, rate 125 μM",2
same,No. plants dead,"[1]; seedling soak, rate 125 μM",62
same,No. plants dead after TP,[1]; [7],0
